US9730445B2, “Herbicidal compositions comprising 4-amino-3-chloro-5-fluoro-6-(4-chloro-2-fluoro-3-methoxyphenyl) pyridine-2-carboxylic acid or a derivative thereof and fungicides” (DOW AGROSCIENCES LLC, priority 2013, dated 2017)

Tests used:
Test in all cases: Postemergence foliar-applied weed control, direct-seeded rice (greenhouse)
CYPES = format: in vivo, Cyperus esculentus L. (yellow nutsedge); details: r45 ester 8 g ae/ha alone, r46-48 kasugamycin 17.5/35/70 g ai/ha alone, r49-51 ester 8 + 17.5/35/70
Experimental: (§1) Seeds or nutlets of the desired test plant species were planted in a soil matrix prepared by mixing aloam or sandy loam soil (e.g., 28.6 percent silt, 18.8 percent clay, and 52.6 percent sand, with a pH of about 5.8 and an organic matter content of about 1.8 percent) and calcareous grit in an 80 to 20 ratio. The soil matrix was contained in plastic pots with a volume of 1 quart and a surface area of 83.6 square centimeters (cm^2). […] The plants were grown for 8-22 days in a greenhouse with an approximate 14 hour (h) photoperiod which was maintained at about 29° C. during the day and 26° C. during the night. Nutrients (Peters Excel® 15-5-15 5-Ca 2-Mg and iron chelate) were applied in the irrigation solution as needed and water was added on a regular basis. Supplemental lighting was provided with overhead metal halide 1000-Watt lamps as necessary. The plants were employed for testing when they reached the first through fourth true leaf stage.
(§2) Treatments consisted of the acid or esters of 4-amino-3-chloro-5-fluoro-6-(4-chloro-2-fluoro-3-methoxy-phenyl)pyridine-2-carboxylic acid (Compound A), each formulated as an SC (suspension concentrate), and various fungicidal components alone and in combination. Forms of compound A were applied on an acid equivalent basis.
(§3) For treatments comprised of formulated compounds, measured amounts of compounds were placed individually in 25 mL glass vials and diluted in a volume of 1.25% volume per volume (v/v) Agri-Dex® crop oil concentrate to obtain 12× stock solutions. […] Application solutions were prepared by adding an appropriate amount of each stock solution (e.g., 1 mL) and diluted to the appropriate final concentrations with the addition of […] of an aqueous mixture of 1.25% (v/v) crop oil concentrate so that the final spray solutions contained 1.25+/−0.05% (v/v) crop oil concentrate.
(§4) For treatments comprised of technical compounds, weighed amounts can be placed individually in 25 mL glass vials and dissolved in a volume of 97:3 volume per volume (v/v) acetone/dimethyl sulfoxide (DMSO) to obtain 12× stock solutions. […] When technical materials are used, the concentrated stock solutions can be added to the spray solutions so that the final acetone and DMSO concentrations of the application solutions are 16.2% and 0.5%, respectively.
(§5) As required, additional water and/or 97:3 v/v acetone/DMSO was added to individual application solutions so that the final acetone and DMSO concentrations of the application solutions being compared were 8.1% and 0.25%, respectively
(§6) All stock solutions and applications solutions were visually inspected for compound compatibility prior to application. Spray solutions were applied to the plant material with an overhead Mandel track sprayer equipped with 8002E nozzles calibrated to deliver 187 L/ha over an application area of 0.503 square meters (m^2) at a spray height of 18 to 20 inches (46 to 50 cm) above average plant canopy height. Control plants were sprayed in the same manner with the solvent blank.
(§7) The treated plants and control plants were placed in a greenhouse as described above and watered by sub-irrigation to prevent wash-off of the test compounds. After approximately 3 weeks, the condition of the test plants as compared with that of the untreated plants was determined visually and scored on a scale of 0 to 100 percent where 0 corresponds to no injury or growth inhibition and 100 corresponds to complete kill. […]

LEFCH = format: in vivo, Leptochloa chinensis (L.) Nees (Chinese sprangletop); details: 21 DAA
Experimental: as §1, §2, §3, §4, §5, §6
(§8) The treated plants and control plants were placed in a greenhouse as described above and watered by sub-irrigation to prevent wash-off of the test compounds. After approximately 3 weeks, the condition of the test plants as compared with that of the untreated plants was determined visually and scored on a scale of 0 to 100 percent where 0 corresponds to no injury or growth inhibition and 100 corresponds to complete kill.
(§9) Colby's equation was used to determine the herbicidal effects expected from the mixtures (Colby, S. R. Calculation of the synergistic and antagonistic response of herbicide combinations. Weeds 1967, 15, 20-22.).
(§10) The following equation was used to calculate the expected activity of mixtures containing two active ingredients, A and B: Expected=A+B−(A×B/100)

DIGSA = format: in vivo, Digitaria sanguinalis (L.) Scop. (large crabgrass)
Description: Seeds or nutlets of the desired test plant species were planted in a soil matrix prepared by mixing aloam or sandy loam soil (e.g., 28.6 percent silt, 18.8 percent clay, and 52.6 percent sand, with a pH of about 5.8 and an organic matter content of about 1.8 percent) and calcareous grit in an 80 to 20 ratio. The soil matrix was contained in plastic pots with a volume of 1 quart and a surface area of 83.6 square centimeters (cm^2). When required to ensure good germination and healthy plants, a fungicide treatment and/or other chemical or physical treatment was applied. The plants were grown for 8-22 days in a greenhouse with an approximate 14 hour (h) photoperiod which was maintained at about 29° C. during the day and 26° C. during the night. Nutrients (Peters Excel® 15-5-15 5-Ca 2-Mg and iron chelate) were applied in the irrigation solution as needed and water was added on a regular basis. Supplemental lighting was provided with overhead metal halide 1000-Watt lamps as necessary. The plants were employed for testing when they reached the first through fourth true leaf stage.
as §2
Treatment requirements were calculated based upon the rates being tested, the concentration of active ingredient or acid equivalent in the formulation and a 12 milliliter (mL) application volume at a rate of 187 liters per hectare (L/ha).
as §3, §4, §5, §6, §7

CYPIR = format: in vivo, Cyperus iria L. (rice flatsedge); details: 21 DAA, r29-30 ester 8/16 g ae/ha alone, r31-33 kasugamycin 17.5/35/70 g ai/ha alone, r34-39 ester 8/16 at each of 17.5, 35, 70
Experimental: as §1, §2, §3, §4, §5, §6, §8, §9, §10

IPOHE = format: in vivo, Ipomoea hederacea (L.) Jacq. (ivyleaf morningglory)
Experimental: as §1, §2, §3, §4, §5, §6, §8, §9, §10

ECHOR = format: in vivo, Echinochloa oryzoides (Ard.) Fritsch (early watergrass)
Experimental: as §1, §2
For treatments comprised of formulated compounds, measured amounts of compounds were placed individually in 25 mL glass vials and diluted in a volume of 1.25% volume per volume (v/v) Agri-Dex® crop oil concentrate to obtain 12× stock solutions. […]
as §7

ECHCG = format: in vivo, Echinochloa crus-galli (L.) P. Beauv. (barnyardgrass)
Experimental: as §1, §2, §3, §4, §5, §6, §8, §9, §10

[1] = r9-11 ester 8/16/32 g ae/ha alone, r12-14 kasugamycin 17.5/35/70 g ai/ha alone, r15-23 ester 8/16/32 at each of 17.5, 35, 70
[2] = r9-11 acid 5.3/10.6/21.2 g ae/ha alone, r12 difenoconazole 200 g ai/ha alone, r13-15 acid 5.3/10.6/21.2 + 200
[3] = r10-12 ester 4.38/8.75/17.5 g ae/ha alone, r13 difenoconazole 200 g ai/ha alone, r14-16 ester 4.38/8.75/17.5 + 200

CC1OC(OC2C(O)C(O)C(O)C(O)C2O)C(N)CC1NC(=N)C(=O)O.Cl [Kasugamycin, 1L-1,3,4/2,5,6-1-deoxy-2,3,4,5,6,-pentahydroxycyclohexyl 2-amino-2,3,4,6-tetradeoxy-4-(α-iminoglycino)-α-D-arabino-hexopyranoside hydrochloride hydrate, reference compound]
0%: Visual Weed Control (%)—21 DAA CYPES Obs (CYPES) | Visual Weed Control (%)—21 DAA LEFCH Obs (LEFCH; [1]) | Visual Weed Control (%)—21 DAA DIGSA Obs (DIGSA; [1]) | Visual Weed Control (%)—21 DAA CYPIR Obs (CYPIR) | Visual Weed Control (%)—21 DAA IPOHE Obs (IPOHE; [1]) | Visual Weed Control (%)—21 DAA ECHOR Obs (ECHOR; [1])

CC1COC(Cn2cncn2)(c2ccc(Oc3ccc(Cl)cc3)cc2Cl)O1 (mixture of isomers) [Difenoconazole, cis, trans-3-chloro-4-[4-methyl-2-(1H-1,2,4-triazol-1-ylmethyl)-1,3,dioxolan-2-yl]phenyl 4-chlorophenyl ether, reference compound]
0%: Visual Weed Control (%)—21 DAA ECHCG Obs (ECHCG; [2]) | Visual Weed Control (%) - 21 DAA ECHCG Obs (ECHCG; r58-60 ester 8/16/32 g ae/ha alone, r61-63 difenoconazole 50/100/200 g ai/ha alone, r64-72 ester 8/16/32 at each of 50, 100, 200) | Visual Weed Control (%)—21 DAA LEFCH Obs (LEFCH; [2]) | Visual Weed Control (%) - 21 DAA LEFCH Obs (LEFCH; [3]) | Visual Weed Control (%) - 21 DAA LEFCH Obs (LEFCH; r42-43 ester 16/32 g ae/ha alone, r44-46 difenoconazole 50/100/200 g ai/ha alone, r47-52 ester 16/32 at each of 50, 100, 200) | Visual Weed Control (%)—21 DAA DIGSA Obs (DIGSA; [2]) | Visual Weed Control (%) - 22 DAA DIGSA Obs (DIGSA; 22 DAA, r22-24 ester 8/16/32 g ae/ha alone, r25-27 difenoconazole 50/100/200 g ai/ha alone, r28-36 ester 8/16/32 at each of 50, 100, 200) | Visual Weed Control (%) - 21 DAA IPOHE Obs (IPOHE; [3]) | Visual Weed Control (%) - 21 DAA ECHOR Obs (ECHOR; r78-80 ester 8/16/32 g ae/ha alone, r81-83 difenoconazole 50/100/200 g ai/ha alone, r84-92 ester 8/16/32 at each of 50, 100, 200)
